Several values for one entry are separate records, joined by “and”; a condition that tells them apart may be missing. Identical values can stand only once. Residues, ends and D or L forms follow the SMILES beside them.
Experiments:
[1] = AF-16 concentration in CSF after intranasal or i.v. administration (estimated from radioactivity of 14C-AF-16); assay type: in vivo, rat; conditions: for Concentration of AF-16 in CSF: estimated from 14C radioactivity, mean ± SEM
Method: (§1) The test protocol was approved by the Regional Animal Experiments Ethical Committee and performed in accordance with guidelines for animal experiments (EC Directive 86/609/EEC). Male Sprague–Dawley rats, 180 ± 20 g body weight (Nova-SCB, Sollentuna, Sweden) were used. The rats were allowed a week for general adaptation in their cages before any form of experimental procedure was performed. All rats had free access to water and pelleted food during the whole experimental period. The temperature and air ventilation in the animal quarters were monitored according to standard procedures.
(§2) The operation procedure started with general anaesthesia via inhalation of Isoflurane (4 % induction, 1.5–2 % maintenance in air), after which the anaesthetised rat was positioned on the abdomen on a heating pad. The body temperature was monitored via a rectal thermo-coupled probe, and a heated blanket was placed underneath the rat in order to keep the temperature at 37 °C. The head was shaved and the skin washed with 70 % alcohol, followed by a subcutaneous injection of Marcaine. A 3– to 4-cm-long midline incision was made through the skin and fascia on the skull vault. The skull bone was freed from adherent connective tissue and a copper rod (144 g) with a tip diameter of 4 mm was immersed in liquid nitrogen and then applied to the right parietal bone for 90 s. […] The resulting lesion volume was calculated after termination of the experiments (see below). Uninjured rats were used as controls.
(§3) Rats were anaesthetised with Isoflurane 24 h after the cryogenic brain injury. The rats were given a single dose of 25 μl of AF-16 (2,000 μg/ml in phosphate buffered saline, PBS) or ^14C-AF-16 in each nostril and were then placed on their backs to make sure the AF-16 solution was absorbed appropriately. After 5–8 min they had recovered from anaesthesia, were fully awake and moved freely in the cage. Control, injured rats received the same volume of vehicle (PBS) only. ICP recordings for statistical calculations were collected for a 20-min-long period, starting after the animals were fully awake and the ICP values were stable and back to pre-anaesthesia levels.
(§4) The collection of blood and CSF was done in a separate set of experiments. ^14C-Labelled or unlabelled AF-16 was given by intranasal (see above) or i.v. administration via the penis vein (25 μl in a volume of 0.5 ml). For measurement of blood concentration of AF-16 the heart was punctured from the right thoracic cavity with an O.D. 1.22/60 mm injection needle. When 10–12 ml of blood had been collected, the thorax was opened and the rats were terminated by removing the heart. Immediately after termination, the rats were placed on the abdomen. For measurement of CSF levels of AF-16 the dura over cisterna magna was micro-surgically exposed by dissecting the neck muscles laterally, a procedure which uncovers the midline. The dura was subsequently punctured by a Neoflon i.v. cannula, outer diameter 0.6 mm, length 19 mm. After removing the needle from the cannula, 50–100 μl of CSF could be aspired without being contaminated with blood.
(§5) A Bachem AF-16 Enzyme Immunoassay kit (item S-1403) was used. Heparin-treated blood samples were mixed with an equal volume of Alsevers citrate solution (glucose, 0.1 M, sodium citrate 2-hydrate, 0.03 M, sodium chloride, 0.07 M). The blood samples were stored frozen for up to 1 month at −20 °C. The laboratory procedure followed Protocol III in the Bachem kit manual, but some critical points should be emphasised. […]

[2] = Side effects of AF-16 treatment in animals; assay type: in vivo; conditions: experimental conditions in animals
[3] = AF-16 concentration in plasma after intranasal or i.v. administration (Bachem AF-16 Enzyme Immunoassay); assay type: in vivo, rat; conditions: for Concentration of AF-16 in plasma: experimental rats (cryogenic brain injury); for Concentration of AF-16 in plasma / level at 0.5 h: sample 30 min after dosing, enzyme immunoassay, mean ± SEM; for level at 0.5 h: male, Sprague-Dawley, rat, plasma, control (uninjured) rats
Method: as §1, §2, §3, §4
as §5, with “emphasised. The standard AF-16 was dissolved and diluted in normal blood plasma; the standards S1-S6 (0.2–200 ng/ml, corresponding to 0.114–114 nM) and normal plasma S0 were distributed into smaller aliquots (e.g. 200 μl) and frozen at −20 °C until use. The standard is not stable in buffered saline at these concentrations.” for “emphasised.”

[4] = Autoradiography of 14C-AF-16 distribution in the brain after intranasal administration; assay type: in vivo, rat; conditions: control uninjured rats (n = 10), one intranasal dose, 30 min, 10 μm cryosections, X-ray film
Method: The distribution of ^14C-AF-16 in the brain after intranasal administration was investigated in a separate set of experiments. Control, uninjured rats (n = 10) received one intranasal dose of ^14C-AF-16. Thirty minutes later the rats were terminated and the brains were dissected out as described above. Frontal slices were cut, about 3 mm thick, immersed in 10 % sucrose in PBS overnight and then frozen in liquid nitrogen. Cryosections, cut at 10 μm, were prepared, air dried and exposed to Biomax AR autoradiography film (Kodak).

Row | Compound | Concentration of AF-16 in CSF ([1]; control (uninjured) rats, i.v., CSF from cisterna magna 30 min after dosing, n = 6) [ng/mL] | Concentration of AF-16 in CSF ([1]; control (uninjured) rats, intranasal, CSF 30 min after dosing, n = 9) | Concentration of AF-16 in CSF ([1]; experimental rats (cryogenic brain injury), i.v., CSF from cisterna magna 30 min after dosing, n = 7) [ng/mL] | Concentration of AF-16 in CSF ([1]; experimental rats (cryogenic brain injury), intranasal, CSF 30 min after dosing, n = 9, p = 0.01 vs control) | Decrease of AF-16 in CSF between 15 and 30 min ([1]; normal rats, intranasal 0.3 μmol/kg) | Side effects of treatment [2] | Concentration of AF-16 in plasma relative to CSF ([3]; control and injured rats, 30 min after intranasal or i.v. administration) | Concentration of AF-16 in plasma ([3]; i.v. via penis vein (25 μl in 0.5 ml), n = 7) [ng/mL] | Concentration of AF-16 in plasma ([3]; intranasal (25 μl of 2,000 μg/ml in PBS in each nostril), n = 9) [ng/mL] | level at 0.5 h ([3]; inhaled or intranasal, 100 ug per rat, intranasal (25 μl of 2,000 μg/ml in PBS in each nostril), n = 9) [ng/mL] | level at 0.5 h ([3]; iv, 25 ul in a volume of 0.5 ml, i.v. via penis vein (25 μl in 0.5 ml), n = 7) [ng/mL] | Concentration of AF-16 in plasma relative to CSF ([3]; normal rats, intranasal 0.3 μmol/kg in 25 μl, 15 and 30 min after deposition) | Change of plasma level between 15 and 30 min ([3]; normal rats, intranasal 0.3 μmol/kg, p < 0.03) | Distribution in the brain by autoradiography [4]
1 | CC(C)C[C@H](NC(=O)CNC(=O)[C@@H](NC(=O)[C@H](CC(N)=O)NC(=O)[C@H](CC(N)=O)NC(=O)[C@H](CCC(=O)O)NC(=O)[C@@H]1CCCN1C(=O)[C@H](CC(N)=O)NC(=O)[C@H](CO)NC(=O)[C@H](CCCNC(=N)N)NC(=O)[C@@H](NC(=O)[C@H](CCCCN)NC(=O)[C@H](CO)NC(=O)[C@H](Cc1c[nH]cn1)NC(=O)[C@H](CS)NC(=O)[C@@H](N)C(C)C)[C@@H](C)O)C(C)C)C(=O)O [AF-16] (H-VCHSKTRSNPENNVGL-OH) | 1.1 ± 0 | 0.6 ng/mL and 0.6 ± 0.1 ng/mL | 1.1 ± 0.1 | 1.3 ng/mL and 1.3 ± 0.2 ng/mL | not statistically significant | No side effects | about ten-times higher in plasma than in CSF | 14.5 ± 0.9 | 8.7 ± 0.5 | 7.8 ± 0.7 | 14.7 ± 0.6 | about ten-times higher in plasma than in CSF | decreased significantly | 
2 | VCHSKTRSNPENNVGL [^14C-AF-16] |  |  |  |  |  |  |  |  |  |  |  |  |  | detected in the brain ventricles/choroid plexus

Reference: paper PMC4281356, “Uptake of the antisecretory factor peptide AF-16 in rat blood and cerebrospinal fluid and effects on elevated intracranial pressure” (Acta Neurochirurgica, 2014)
